Measurements from PubChem BioAssay AID248 (DTP/NCI, 2004).
“And” between values parts separate entries of the source, which are not always exact repeats. Identical values can stand only once. Inconclusive results and toxic doses are left out. Rule as the data show it: active = T/C of 150% or more; inactive = T/C below 125%.

Tested on: L1210 leukemia ip in BDF1 mice, survival T/C
Assay: NCI In Vivo Anticancer Drug Screen. Data for tumor model L1210 Leukemia (intraperitoneal) in B6D2F1 (BDF1) mice
Settings: endpoint: mean survival time, higher = longer survival
Procedure, shortened: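 Antitumor effect is assessed in tumor-bearing animals. Survival in the compound arm is compared with a vehicle-dosed control arm and expressed as their quotient.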

[1] = dose: 12.5 mg/kg/injection, schedule: Q04DX003 (ip), vehicle: Klucel (hydroxypropylcellulose) (HPC)
[2] = dose: 25.0 mg/kg/injection, schedule: Q04DX003 (ip), vehicle: Klucel (hydroxypropylcellulose) (HPC)
[3] = dose: 25.0 mg/kg/injection, schedule: Q04DX003 (ip), vehicle: saline
[4] = dose: 50.0 mg/kg/injection, schedule: Q04DX003 (ip), vehicle: Klucel (hydroxypropylcellulose) (HPC)
[5] = dose: 50.0 mg/kg/injection, schedule: Q04DX003 (ip), vehicle: saline
[6] = dose: 100.0 mg/kg/injection, schedule: Q04DX003 (ip), vehicle: saline
[7] = dose: 100.0 mg/kg/injection, schedule: Q01DX001 (ip), vehicle: Klucel (hydroxypropylcellulose) (HPC)
[8] = dose: 200.0 mg/kg/injection, schedule: Q01DX001 (ip), vehicle: Klucel (hydroxypropylcellulose) (HPC)
[9] = dose: 100.0 mg/kg/injection, schedule: Q01DX001 (ip), vehicle: saline
[10] = dose: 200.0 mg/kg/injection, schedule: Q01DX001 (ip), vehicle: saline
[11] = dose: 400.0 mg/kg/injection, schedule: Q01DX001 (ip), vehicle: saline
[12] = dose: 100.0 mg/kg/injection, schedule: Q01DX009 (ip), vehicle: saline with Tween-80
[13] = dose: 100.0 mg/kg/injection, schedule: Q04DX003 (ip), vehicle: saline with Tween-80
[14] = dose: 400.0 mg/kg/injection, schedule: Q01DX001 (ip), vehicle: Klucel (hydroxypropylcellulose) (HPC)
[15] = dose: 100.0 mg/kg/injection, schedule: Q01DX001 (ip), vehicle: saline with Tween-80

Measured: T/C

Cc1cc(/C=N/N2CCN(/N=C/c3cc(C)n(-c4ccccc4)c3C)CC2)c(C)n1-c1ccccc1
inactive: dose: 100.0 mg/kg/injection, schedule: Q01DX001 (ip), vehicle: carboxymethylcellulose (CMC) 95 % of control | dose: 200.0 mg/kg/injection, schedule: Q01DX001 (ip), vehicle: carboxymethylcellulose (CMC) 88 % of control | dose: 400.0 mg/kg/injection, schedule: Q01DX001 (ip), vehicle: carboxymethylcellulose (CMC) 90 % of control

O=C(Nc1cccc(Cl)c1)OCC#CCCl
inactive: dose: 50.0 mg/kg/injection, schedule: Q01DX001 (ip), vehicle: saline sonified 97 % of control

OC1CC2c3ccccc3C1c1cccc[n+]12 (stereo not given)
inactive: dose: 12.5 mg/kg/injection, schedule: Q01DX009 (ip), vehicle: Klucel (hydroxypropylcellulose) (HPC) 98 % of control | [1] 94 % of control and 97 % of control | dose: 12.5 mg/kg/injection, schedule: Q04DX003 (ip), vehicle: saline 100 % of control | dose: 25.0 mg/kg/injection, schedule: Q01DX009 (ip), vehicle: Klucel (hydroxypropylcellulose) (HPC) 96 % of control | [2] 103 % of control and 95 % of control | [3] 103 % of control | dose: 50.0 mg/kg/injection, schedule: Q01DX009 (ip), vehicle: Klucel (hydroxypropylcellulose) (HPC) 94 % of control | [4] 94 % of control and 95 % of control | [5] 97 % of control | [6] 102 % of control

O=c1c(N=Nc2ccc(Cl)cc2)c(O)n(-c2ccc(Br)cc2)c(=S)n1-c1ccccc1
inactive: dose: 50.0 mg/kg/injection, schedule: Q01DX001 (ip), vehicle: Klucel (hydroxypropylcellulose) (HPC) 97 % of control | [7] 101 % of control | [8] 97 % of control

CCO/N=C(/N)N=C(N)N
inactive: [9] 92 % of control | dose: 100.0 mg/kg/injection, schedule: Q01DX009 (ip), vehicle: saline 106 % of control | [6] 95 % of control | [10] 97 % of control | dose: 200.0 mg/kg/injection, schedule: Q01DX009 (ip), vehicle: saline 107 % of control | dose: 200.0 mg/kg/injection, schedule: Q04DX003 (ip), vehicle: saline 91 % of control | [11] 92 % of control | dose: 400.0 mg/kg/injection, schedule: Q01DX009 (ip), vehicle: saline 97 % of control | dose: 400.0 mg/kg/injection, schedule: Q04DX003 (ip), vehicle: saline 91 % of control

NC(CCSCc1ccccc1)C(=O)O (stereo not given)
inactive: dose: 12.5 mg/kg/injection, schedule: Q04DX002 (ip), vehicle: Klucel (hydroxypropylcellulose) (HPC) 107 % of control | dose: 25.0 mg/kg/injection, schedule: Q04DX002 (ip), vehicle: Klucel (hydroxypropylcellulose) (HPC) 97 % of control | dose: 50.0 mg/kg/injection, schedule: Q04DX002 (ip), vehicle: Klucel (hydroxypropylcellulose) (HPC) 97 % of control | dose: 100.0 mg/kg/injection, schedule: Q04DX002 (ip), vehicle: Klucel (hydroxypropylcellulose) (HPC) 113 % of control | dose: 200.0 mg/kg/injection, schedule: Q04DX002 (ip), vehicle: Klucel (hydroxypropylcellulose) (HPC) 98 % of control | dose: 400.0 mg/kg/injection, schedule: Q04DX002 (ip), vehicle: Klucel (hydroxypropylcellulose) (HPC) 98 % of control

CC(C)N1CN(C(C)C)CN(C(C)C)C1
inactive: dose: 25.0 mg/kg/injection, schedule: Q01DX009 (ip), vehicle: saline 103 % of control | [3] 99 % of control | dose: 50.0 mg/kg/injection, schedule: Q01DX009 (ip), vehicle: saline 93 % of control | [5] 99 % of control | [6] 87 % of control

CCC1(OC(C)=O)C(=O)OCc2c1cc1n(c2=O)Cc2cc3ccccc3nc2-1 (stereo not given)
inactive: dose: 0.13 mg/kg/injection, schedule: Q01DX009 (ip), vehicle: carboxymethylcellulose (CMC) 96 % of control | dose: 0.13 mg/kg/injection, schedule: Q01DX Z (ip), vehicle: water 93 % of control | dose: 0.22 mg/kg/injection, schedule: Q01DX Z (ip), vehicle: water 116 % of control | dose: 0.25 mg/kg/injection, schedule: Q01DX009 (ip), vehicle: carboxymethylcellulose (CMC) 96 % of control | dose: 0.36 mg/kg/injection, schedule: Q01DX Z (ip), vehicle: water 108 % of control | dose: 0.5 mg/kg/injection, schedule: Q01DX009 (ip), vehicle: carboxymethylcellulose (CMC) 91 % of control | dose: 1.0 mg/kg/injection, schedule: Q01DX009 (ip), vehicle: carboxymethylcellulose (CMC) 104 % of control | dose: 1.0 mg/kg/injection, schedule: Q01DX Z (ip), vehicle: water 114 % of control | dose: 2.0 mg/kg/injection, schedule: Q01DX009 (ip), vehicle: carboxymethylcellulose (CMC) 91 % of control

O=S(c1ccccc1)C(Cl)C1(O)CCCCC1 (stereo not given)
inactive: dose: 100.0 mg/kg/injection, schedule: Q03DX002 (ip), vehicle: saline with Tween-80 98 % of control | dose: 200.0 mg/kg/injection, schedule: Q03DX002 (ip), vehicle: saline with Tween-80 98 % of control | dose: 400.0 mg/kg/injection, schedule: Q03DX002 (ip), vehicle: saline with Tween-80 102 % of control

CC(=O)NC1CCCC(C)C1 (stereo not given)
inactive: [12] 101 % of control | dose: 200.0 mg/kg/injection, schedule: Q01DX009 (ip), vehicle: saline with Tween-80 106 % of control

O=C(O)c1cc(-c2cccc(C(F)(F)F)c2)nc2c(C(F)(F)F)cccc12
inactive: dose: 50.0 mg/kg/injection, schedule: Q01DX009 (ip), vehicle: saline with Tween-80 96 % of control | [12] 96 % of control | [13] 101 % of control | dose: 200.0 mg/kg/injection, schedule: Q04DX003 (ip), vehicle: saline with Tween-80 105 % of control

c1ccc2c(c1)CCc1ccccc1N=N2
inactive: [7] 96 % of control | [8] 92 % of control | [14] 94 % of control

C=C1C(=O)OC2/C=C(\C)CC(O)/C=C(/C)CCC12 (stereo not given)
inactive: [1] 96 % of control | [2] 105 % of control | [4] 100 % of control

CCCCC(=O)NCC(=O)N1CCC(C(=O)NCCCCC(=O)OC)C1 (stereo not given)
inactive: dose: 100.0 mg/kg/injection, schedule: Q04DX002 (ip), vehicle: saline 96 % of control | dose: 200.0 mg/kg/injection, schedule: Q04DX002 (ip), vehicle: saline 115 % of control | dose: 400.0 mg/kg/injection, schedule: Q04DX002 (ip), vehicle: saline 104 % of control

CC(C)CCCC(C)C1CCC2C3CC=C4CC(OC(=O)Nc5ccc(S(=O)(=O)NC6CCCCC6)cc5)CCC4(C)C3CCC12C (stereo not given)
inactive: dose: 100.0 mg/kg/injection, schedule: Q01DX001 (sc), vehicle: steriod suspending solution 110 % of control | dose: 200.0 mg/kg/injection, schedule: Q01DX001 (sc), vehicle: steriod suspending solution 108 % of control | dose: 400.0 mg/kg/injection, schedule: Q01DX001 (sc), vehicle: steriod suspending solution 105 % of control

C=C[CH2][Sn]([CH2]C=C)([c]1ccccc1)[c]1ccccc1
inactive: dose: 1.56 mg/kg/injection, schedule: Q01DX009 (ip), vehicle: saline with Tween-80 97 % of control | dose: 3.13 mg/kg/injection, schedule: Q01DX009 (ip), vehicle: saline with Tween-80 92 % of control | dose: 6.25 mg/kg/injection, schedule: Q01DX009 (ip), vehicle: saline with Tween-80 86 % of control

Nc1ncc(-c2ccccc2)nn1 (tested in a mixture with another compound)
inactive: [7] 90 % of control | [8] 90 % of control | [14] 116 % of control

CSc1ccc(NC(=O)Nc2ccc(C(=O)NCC(=O)O)cc2)cc1
inactive: dose: 25.0 mg/kg/injection, schedule: Q01DX009 (ip), vehicle: saline with Tween-80 102 % of control and 92 % of control | dose: 25.0 mg/kg/injection, schedule: Q04DX003 (ip), vehicle: saline with Tween-80 96 % of control | dose: 50.0 mg/kg/injection, schedule: Q04DX003 (ip), vehicle: saline with Tween-80 105 % of control | [15] 97 % of control | dose: 100.0 mg/kg/injection, schedule: Q04DX002 (ip), vehicle: saline with Tween-80 96 % of control and 91 % of control | [13] 110 % of control | dose: 200.0 mg/kg/injection, schedule: Q04DX002 (ip), vehicle: saline with Tween-80 94 % of control and 99 % of control

CCCCCCCCCCCCCCCCCCOc1cccc(C(F)(F)F)c1
inactive: [15] 89 % of control | dose: 200.0 mg/kg/injection, schedule: Q01DX001 (ip), vehicle: saline with Tween-80 91 % of control

CC(=O)Nc1ccc(Cc2ccc3[nH]c(C)cc(=O)c3c2)cc1
inactive: [9] 109 % of control | [10] 98 % of control | [11] 93 % of control
